These results are taken from US9879303B2, “Chromogenic glucuronidase substrates and uses” (Glycosynth Limited, priority 2013, dated 2018).

Common to all, as to assay type: cell-based
The subject of test [1] is E. coli expressing both β-D-glucuronidase and β-D-galactosidase. The test is described as follows: broth media in the presence of ONPG. To be noted: ONPG 1.5 g/L, broth with FAC. On the procedure:
The two indoxyl glucuronides used produce insoluble endpoints following hydrolysis, as does the CPS ID 3 medium. It was therefore necessary to test these two substrates on agar plates. In contrast, catechol-β-D-glucuronide (1) and DHN-β-D-glucuronide (2b) give much more soluble endpoints best suited to liquid media and were therefore tested in a broth medium. Each broth was prepared using proteose peptone (Oxoid, Basingstoke, UK) (2 g), NaCl (1 g) and FAC (100 mg) in DI water (180 mL). This mixture was autoclaved and cooled to room temperature before being dispensed into bijoux (100×1.8 mL). Catechol β-D-glucuronide CHA salt (1) or DHN-β-D-glucuronide CHA salt (2b) (60 mg) were each dissolved in water (20 mL) and filtered to sterilize before being aseptically dispensed into successive bijoux (0.2 mL) containing the broth solution. […]
Because many E. coli produce both β-D-glucuronidase and β-D-galactosidase, catechol-β-D-glucuronide (1) and DHN-β-D-glucuronide (2b) were tested as in the broth media described above but in the presence of o-nitrophenyl-β-D-galactoside (ONPG) (at a concentration of 1.5 g/L). […] With either substrate, the colour of these solutions of mixed chromogens could be very readily distinguished with the unaided eye from the yellow colour of those strains, such as E. cloacae, that produced β-D-galactosidase only. […]

Test [2] concerns E. cloacae. The test is described as follows: screen of strains in broth medium containing FAC. The arrangement: key: Red, Green, Black or Purple mean strong colour; Red, Green, Black or Purple mean strong colour; Red, Green, Black or Purple mean strong colour; Red, Green, Black or Purple mean strong colour; +/− means less colour than strong; Tr means a trace of colour, less than +/−; — means no colour.

The test system of test [3] is E. faecalis NCTC 775. The test is described as follows: screen of strains in broth medium containing FAC. To be noted: 37° C. 18 hours. On the set-up: key: Red, Green, Black or Purple mean strong colour; Red, Green, Black or Purple mean strong colour; Red, Green, Black or Purple mean strong colour; Red, Green, Black or Purple mean strong colour; +/− means less colour than strong; Tr means a trace of colour, less than +/−; — means no colour.

Test [4] deals with 20 different microbial strains. In words: specificity of action on 20 different microbial strains, Columbia agar. The following applies: 19 organisms other than E. coli NCTC 10418, FAC. On the procedure: The specificity of action of both DHN-β-D-glucuronide (2) and of catechol-β-D-glucuronide (1), as well as their 6′-methyl esters (4 and 6), was first established using multi-point inoculation of 20 different microbial strains onto Columbia agar plates. The strains chosen represented species commonly encountered in diagnostic microbiology. The substrates were incorporated into the agar at a concentration of 300 mg/L with an iron salt, ferric ammonium citrate, (hereinafter known as FAC) at 500 mg/L. The plates were incubated for 18 h at 37° C. in air.
Of the 20 strains, only the β-D-glucuronidase-positive strain of E. coli, (E. coli NCTC 10418) was able to hydrolyse the substrates. This organism generated diffuse, purple-brown colonies with the catechol substrates and diffuse, maroon colonies with the DHN substrates. Essentially identical results were obtained if other iron salts (e.g. iron(II) gluconate, iron(II) acetate, iron(II) citrate, iron(II) acetylacetonate and iron(III) acetylacetonate) were substituted in place of FAC. The iron compound can be either iron(II) (i.e. ferrous) or iron(III) (i.e. ferric). Both types of compound work equally, and the coloured chelates were still formed when the plates were incubated under anaerobic conditions, which is another useful feature of the present invention. The substrates may also be autoclaved at 116° C. for 20 minutes with no decrease in sensitivity. It will be appreciated that the media and the reagents will all contain at least traces of iron compounds. […] In contrast, supplementing the growth media with compounds of other metals gave either no coloured endpoint or an extremely poor one to visualise. […] Therefore the latter substrates were preferred for more extensive evaluation. […] For convenience, further evaluation of catechol-β-D-glucuronide and DHN-β-D-glucuronide was conducted with the CHA salt forms only (1 and 2b). In the present invention the counter ion of the glucuronide is not considered to be of special significance. For acidic enzyme substrates (including glucuronides), a variety of different counter ions, both inorganic and organic, are well known in the prior art.

Test [5] relates to E. cloacae. In words: screen of strains on agar plates (CPS ID 3 or Columbia agar). The arrangement: key: Red, Green, Black or Purple mean strong colour; Red, Green, Black or Purple mean strong colour; Red, Green, Black or Purple mean strong colour; Red, Green, Black or Purple mean strong colour; +/− means less colour than strong; Tr means a trace of colour, less than +/−; — means no colour.

The subject of test [6] is E. faecalis NCTC 775. The test is described as above. The arrangement: key: Red, Green, Black or Purple mean strong colour; Red, Green, Black or Purple mean strong colour; Red, Green, Black or Purple mean strong colour; Red, Green, Black or Purple mean strong colour; +/− means less colour than strong; Tr means a trace of colour, less than +/−; — means no colour. The following applies: 37° C. 18 hours.

Setting [7] is: E. cloacae 260329R, 37° C. 18 hours.
[8] abbreviates: E. cloacae NCTC 11936, 37° C. 18 hours.

Counter-ions that a name gives are not always drawn.

Take `O=C(O)C1OC(Oc2ccccc2O)C(O)C(O)C1O` [Compound 1, Catechol β-D-Glucuronide CHA Salt]: the “colour of solutions in the presence of ONPG” value in test [1] is reported as “greyish-black solutions”. Moreover, the colour entry with E. cloacae [2] (setting [7]), with E. cloacae [2] (setting [8]) and in the test on E. faecalis NCTC 775 [3] was “—” throughout. Also, the “result with the other 19 organisms” value in test [4] was “uniformly negative”.

As for `O=C(O)[C@H]1O[C@@H](Oc2c[nH]c3cc(Cl)ccc23)[C@H](O)[C@@H](O)[C@@H]1O` [Rose-β-D-glucuronide CHA salt, 6-chloro-3-indolyl β-D-glucuronide], the colour result in the test on E. cloacae [5] (setting [7]), in the test with E. cloacae [5] (setting [8]) and in the test with E. faecalis NCTC 775 [6] was “—” each time.

As for `O=C(O)C1OC(Oc2cc3ccccc3cc2O)C(O)C(O)C1O` [Compound 2b, DHN-β-D-Glucuronide CHA Salt], the “colour of solutions in the presence of ONPG” value in test [1] is “purple-brown solutions”. For the same compound, the colour result in the test on E. cloacae [2] (setting [7]), in the test on E. cloacae [2] (setting [8]) and with E. faecalis NCTC 775 [3] was “—” in each case. For the same compound, the “result with the other 19 organisms” value in test [4] was “uniformly negative”.

On to `O=C(O)[C@H]1O[C@@H](Oc2c[nH]c3ccc(Br)c(Cl)c23)[C@H](O)[C@@H](O)[C@@H]1O` [X-β-D-glucuronide CHA salt, 5-bromo-4-chloro-3-indolyl β-D-glucuronide], for which the colour entry in the test with E. cloacae [5] (setting [7]), in the test with E. cloacae [5] (setting [8]) and with E. faecalis NCTC 775 [6] was “—” each time.
